The text below walks through data of patent US20020035100A1, “Alkyl ether modified polycyclic compounds having a terminal phenol and uses for protection of cells” (priority 2000, published 2002).

Each structure is given as a SMILES string. Entries after “also recorded” stand apart in the source; their conditions may differ.

As usually defined, the melting point is the temperature of the solid-liquid transition.

One data set deals with T1, ERα (Homo sapiens, UniProt P03372).
T1 sequence (P03372 1-595): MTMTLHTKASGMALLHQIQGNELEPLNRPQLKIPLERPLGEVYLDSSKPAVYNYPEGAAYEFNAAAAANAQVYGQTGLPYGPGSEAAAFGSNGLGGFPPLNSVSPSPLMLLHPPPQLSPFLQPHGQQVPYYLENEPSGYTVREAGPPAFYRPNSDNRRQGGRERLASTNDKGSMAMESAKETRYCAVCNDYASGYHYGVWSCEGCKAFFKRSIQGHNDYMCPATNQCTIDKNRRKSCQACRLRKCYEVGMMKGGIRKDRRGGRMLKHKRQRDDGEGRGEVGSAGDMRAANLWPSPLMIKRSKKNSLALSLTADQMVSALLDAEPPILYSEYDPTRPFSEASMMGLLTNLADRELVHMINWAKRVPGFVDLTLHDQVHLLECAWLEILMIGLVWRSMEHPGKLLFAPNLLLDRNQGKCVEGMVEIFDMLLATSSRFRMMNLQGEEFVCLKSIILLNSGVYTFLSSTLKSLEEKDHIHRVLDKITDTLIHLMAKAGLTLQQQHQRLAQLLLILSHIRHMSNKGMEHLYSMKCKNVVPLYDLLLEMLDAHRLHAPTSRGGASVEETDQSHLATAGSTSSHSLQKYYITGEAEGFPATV
Description: Estrogen receptor binding, displacement of radiolabeled 17β-estradiol. Set-up: dose or concentration left out as unconfirmed. Particulars: human cloned ERα, 17β-estradiol assigned 1; <0.01 = no evidence of binding.

A further data set concerns HT-22 cells. The experiment in a line: Cytoprotection of HT-22 cells against glutamate exposure (calcein AM cell viability). It counts as cell-based, Mouse. Particulars: for neuroprotection: at 10 μM and 1 μM; for cytoprotection (result in words): tested at 0.01-10 μM; for activity compared with 4c and 4e: at 10 μM. Here is the method:
Mouse clonal hippocampal HT-22 cells were cultured in DMEM media supplemented with 10% fetal bovine serum under standard cell culture conditions. All wells in the 96 well culture plate contained approximately 5,000 HT-22 cells as determined by a Neubauer hemacytometer and the cells were incubated for 24 hrs before the compounds were added. The estradiol derivatives were purified recrystallization or column chromatography and were free from (1) as determined by HPLC. All agents were dissolved in absolute ethanol and diluted, with the culture media, to a final concentration of 0.01 μM; 0.1 μM; 1.0 μM; and 10 μM in their respective wells. The cells were further incubated for 24 hrs before sodium glutamate in a solution of phosphate buffer was added. Cell viability was quantified 2 hrs later by the calcein AM assay (Green, P. S., E. J.Perez, T. Calloway and J. W. Simpkins: (2000), Journal of Neurocytology, Vol. 29, pp. 419-423) in a phosphate buffer solution.
ANOVA was used to determine the significance of differences among groups. Comparison between groups were done using the Tukey test. Ap<0.05 was considered significant.

The target in another data set is ERβ (Homo sapiens, UniProt Q92731). Description: Estrogen receptor binding, displacement of radiolabeled 17β-estradiol. Further details: dose or concentration left out as unconfirmed. The following applies: human cloned ERβ, 17β-estradiol assigned 1; <0.01 = no evidence of binding.
Chain of ERβ (Q92731 whole entry): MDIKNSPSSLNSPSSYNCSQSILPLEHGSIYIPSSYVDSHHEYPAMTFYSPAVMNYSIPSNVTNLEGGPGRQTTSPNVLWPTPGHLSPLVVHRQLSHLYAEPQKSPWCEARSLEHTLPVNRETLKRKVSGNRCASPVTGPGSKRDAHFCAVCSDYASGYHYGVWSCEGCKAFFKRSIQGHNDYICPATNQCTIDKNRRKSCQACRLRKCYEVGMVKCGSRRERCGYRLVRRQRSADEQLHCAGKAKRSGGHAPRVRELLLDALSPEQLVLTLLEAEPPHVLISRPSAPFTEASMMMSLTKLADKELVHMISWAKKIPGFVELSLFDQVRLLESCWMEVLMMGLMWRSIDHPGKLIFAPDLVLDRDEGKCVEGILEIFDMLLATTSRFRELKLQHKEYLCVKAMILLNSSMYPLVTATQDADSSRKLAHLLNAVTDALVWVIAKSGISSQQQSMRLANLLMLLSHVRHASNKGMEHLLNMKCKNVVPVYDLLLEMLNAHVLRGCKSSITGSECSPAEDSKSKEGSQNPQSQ

Consider `CCCO[C@H]1CC[C@H]2[C@@H]3CCc4cc(O)ccc4[C@H]3CC[C@]12C` [Compound 4c, 17β-Propoxyestra-1,3,5(10)-trien-3-ol], for which the “ERα BINDING (Relative to E2)” value on ERα is given as below 0.01.

For `CCCCCCO[C@H]1CC[C@H]2[C@@H]3CCc4cc(O)ccc4[C@H]3CC[C@]12C` [Compound 4e, 17β-Hexyloxyestra-1,3,5(10)-trien-3-ol], in the data set on HT-22 cells, the neuroprotection result is given as “neuroprotective to a similar extent” and the “cytoprotection (result in words)” value was “active”.

As for `CCCCCCCCO[C@H]1CC[C@H]2[C@@H]3CCc4cc(O)ccc4[C@H]3CC[C@]12C` [Compound 4f, 17β-Octyloxyestra-1,3,5(10)-trien-3-ol], in the data set with HT-22 cells, the neuroprotection result is recorded as “neuroprotective to a similar extent”. Also, the “ERα BINDING (Relative to E2)” value at ERα is recorded as below 0.01. The “ERβ BINDING (Relative to E2)” value on ERβ was below 0.01.

In turn, `CCCCCCCCOc1ccc2c(c1)CC[C@@H]1[C@@H]2CC[C@]2(C)[C@@H](O)CC[C@@H]12` [Compound 5c, 3-Octyloxyestra-1,3,5(10)-trien-17β-ol] gave a melting point of 64 to 66 °C. In the data set with HT-22 cells, the “cytoprotection (result in words)” value was “ineffective”.

As to `C[C@]12CC[C@@H]3c4ccc(O)cc4CC[C@H]3[C@@H]1CC[C@@H]2O` [Compound 1, 17β-estradiol, reference compound], in the data set on HT-22 cells, the “activity compared with 4c and 4e” value is “less active then 4c and 4e”; the “cytoprotection (result in words)” value is listed as “effective only at 10 μM”.

With `CCO[C@H]1CC[C@H]2[C@@H]3CCc4cc(O)ccc4[C@H]3CC[C@]12C` [Compound 4b, 17β-Ethoxyestra-1,3,5(10)-trien-3-ol], the “ERα BINDING (Relative to E2)” value on ERα is recorded as below 0.01.

`CCCCO[C@H]1CC[C@H]2[C@@H]3CCc4cc(O)ccc4[C@H]3CC[C@]12C` [Compound 4d, 17β-Butoxyestra-1,3,5(10)-trien-3-ol]: the melting point lay within 77 to 81 °C.

Take `CO[C@H]1CC[C@H]2[C@@H]3CCc4cc(O)ccc4[C@H]3CC[C@]12C` [Compound 4a, 17β-Methoxyestra-1,3,5(10)-trien-3-ol]: the “activity compared with 4c and 4e” value in the data set on HT-22 cells was “less active then 4c and 4e”. For the same compound, the “cytoprotection (result in words)” value with HT-22 cells was “inactive; also recorded: ineffective even at 10 μM”; in the data set on HT-22 cells (listed as 17β-methylestradiol), “effective only at 10 μM”.

`CCCCOc1ccc2c(c1)CC[C@@H]1[C@@H]2CC[C@]2(C)[C@@H](O)CC[C@@H]12` [Compound 5b, 3-Butoxyestra-1,3,5(10)-trien-17β-ol] registered a melting point of 86 to 88 °C. For the same compound, the “cytoprotection (result in words)” value in the data set on HT-22 cells is given as “ineffective”.
